How the values were obtained:
Assay in all cases: relative viability (nuclei count vs DMSO), 5 days (fraction); higher = more cells survive
Etoposide + Palbociclib = compound: COc1cc([C@@H]2c3cc4c(cc3[C@@H](O[C@@H]3O[C@@H]5CO[C@@H](C)O[C@H]5[C@H](O)[C@H]3O)[C@H]3COC(=O)[C@H]23)OCO4)cc(OC)c1O [Etoposide] + CC(=O)c1c(C)c2cnc(Nc3ccc(N4CCNCC4)cn3)nc2n(C2CCCC2)c1=O [Palbociclib] (partner 0.5 µM)
How it was run: (§1)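 Relative viability is defined as nuclei in treated wells over nuclei in vehicle wells. Duplicate plates were run and medians reported. Lung cancer cell lines in 1536-well plates were dosed by pin tool one day after seeding, with one drug or with a fixed anchor-drug dose plus five library-drug doses (not always all listed) in √10 steps, and nuclei were counted after 5 days.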

Bleomycin + Linsitinib = compound: CC1=C(N=C(N=C1N)[C@H](CC(=O)N)NC[C@@H](C(=O)N)N)C(=O)N[C@@H]([C@H](C2=CN=CN2)OC3C(C(C(C(O3)CO)O)O)OC4C(C(C(C(O4)CO)O)OC(=O)N)O)C(=O)N[C@H](C)[C@H]([C@H](C)C(=O)N[C@@H]([C@@H](C)O)C(=O)NCCC5=NC(=CS5)C6=NC(=CS6)C(=O)NCCC[S+](C)C)O [Bleomycin] + C[C@]1(O)C[C@@H](c2nc(-c3ccc4ccc(-c5ccccc5)nc4c3)c3c(N)nccn32)C1 [Linsitinib] (partner 1 µM); settings: main component drawn
How it was run: as §1

Bleomycin + Bortezomib = compound: CC1=C(N=C(N=C1N)[C@H](CC(=O)N)NC[C@@H](C(=O)N)N)C(=O)N[C@@H]([C@H](C2=CN=CN2)OC3C(C(C(C(O3)CO)O)O)OC4C(C(C(C(O4)CO)O)OC(=O)N)O)C(=O)N[C@H](C)[C@H]([C@H](C)C(=O)N[C@@H]([C@@H](C)O)C(=O)NCCC5=NC(=CS5)C6=NC(=CS6)C(=O)NCCC[S+](C)C)O [Bleomycin] + CC(C)C[C@H](NC(=O)[C@H](Cc1ccccc1)NC(=O)c1cnccn1)B(O)O [Bortezomib] (partner 0.002 µM); settings: main component drawn
How it was run: as §1

Etoposide + Dasatinib = compound: COc1cc([C@@H]2c3cc4c(cc3[C@@H](O[C@@H]3O[C@@H]5CO[C@@H](C)O[C@H]5[C@H](O)[C@H]3O)[C@H]3COC(=O)[C@H]23)OCO4)cc(OC)c1O [Etoposide] + Cc1nc(Nc2ncc(C(=O)Nc3c(C)cccc3Cl)s2)cc(N2CCN(CCO)CC2)n1 [Dasatinib] (partner 0.075 µM)
How it was run: as §1

Cell Line	relative viability (Etoposide + Palbociclib; first compound 0.01 µM)	relative viability (Etoposide + Palbociclib; first compound 0.03162 µM)	relative viability (Etoposide + Palbociclib; first compound 0.1 µM)	relative viability (Etoposide + Palbociclib; first compound 0.3162 µM)	relative viability (Etoposide + Palbociclib; first compound 1 µM)	relative viability (Bleomycin + Linsitinib; first compound 0.01 µM)	relative viability (Bleomycin + Linsitinib; first compound 0.03162 µM)	relative viability (Bleomycin + Linsitinib; first compound 0.1 µM)	relative viability (Bleomycin + Linsitinib; first compound 0.3162 µM)	relative viability (Bleomycin + Linsitinib; first compound 1 µM)	relative viability (Bleomycin + Bortezomib; first compound 0.01 µM)	relative viability (Bleomycin + Bortezomib; first compound 0.03162 µM)	relative viability (Bleomycin + Bortezomib; first compound 0.1 µM)	relative viability (Bleomycin + Bortezomib; first compound 0.3162 µM)	relative viability (Bleomycin + Bortezomib; first compound 1 µM)	relative viability (Etoposide + Dasatinib; first compound 0.01 µM)	relative viability (Etoposide + Dasatinib; first compound 0.03162 µM)	relative viability (Etoposide + Dasatinib; first compound 0.1 µM)	relative viability (Etoposide + Dasatinib; first compound 0.3162 µM)	relative viability (Etoposide + Dasatinib; first compound 1 µM)
HCC-44	0.99	0.94	1.02	0.947	0.701	0.462	0.283	0.26	0.176	0.178	0.544	0.333	0.225	0.153	0.145	–	–	–	–	–
HCC-78	0.403	0.522	0.534	0.402	0.378	0.488	0.343	0.343	0.282	0.179	0.426	0.372	0.458	0.29	0.31	0.435	0.39	0.33	0.334	0.152
HCC-366	0.341	0.375	0.257	0.071	0.0568	0.29	0.229	0.171	0.0412	0.0312	0.736	0.34	0.293	0.0464	0.0446	0.644	0.774	0.36	0.178	0.0448
HCC-827	0.418	0.475	0.341	0.161	0.156	0.943	1.02	0.88	0.666	0.308	0.948	0.918	0.9	0.464	0.357	0.243	0.298	0.177	0.279	0.188
IA-LM	–	–	–	–	–	0.588	0.476	0.344	0.293	0.246	0.493	0.746	0.676	0.339	0.269	–	–	–	–	–
LK-2	0.618	0.588	0.451	0.412	0.275	0.418	0.373	0.318	0.198	0.255	–	–	–	–	–	0.248	0.297	0.275	0.301	0.181
NCI-H358	0.132	0.148	0.131	0.104	0.0757	0.674	0.738	0.666	0.455	0.39	–	–	–	–	–	0.166	0.179	0.112	0.149	0.106
NCI-H522	0.926	0.988	0.849	1.16	0.797	–	–	–	–	–	–	–	–	–	–	0.861	0.883	0.805	0.895	0.874
NCI-H596	–	–	–	–	–	0.79	0.73	0.554	0.442	0.43	0.662	0.686	0.637	0.402	0.521	0.608	0.657	0.543	0.647	0.507

From the supplement of paper PMC10307832
